IC50 and inhibition data for nine compounds are collected here from US12378250B2, “Tricyclic compound as IRAK4 inhibitor” (KOREA RESEARCH INSTITUTE OF CHEMICAL TECHNOLOGY, priority 2018, dated 2025).

Experiment [1] has as its target T1, IRAK4 enzyme (Homo sapiens, UniProt Q9NWZ3).
T1 sequence (Q9NWZ3 1-460): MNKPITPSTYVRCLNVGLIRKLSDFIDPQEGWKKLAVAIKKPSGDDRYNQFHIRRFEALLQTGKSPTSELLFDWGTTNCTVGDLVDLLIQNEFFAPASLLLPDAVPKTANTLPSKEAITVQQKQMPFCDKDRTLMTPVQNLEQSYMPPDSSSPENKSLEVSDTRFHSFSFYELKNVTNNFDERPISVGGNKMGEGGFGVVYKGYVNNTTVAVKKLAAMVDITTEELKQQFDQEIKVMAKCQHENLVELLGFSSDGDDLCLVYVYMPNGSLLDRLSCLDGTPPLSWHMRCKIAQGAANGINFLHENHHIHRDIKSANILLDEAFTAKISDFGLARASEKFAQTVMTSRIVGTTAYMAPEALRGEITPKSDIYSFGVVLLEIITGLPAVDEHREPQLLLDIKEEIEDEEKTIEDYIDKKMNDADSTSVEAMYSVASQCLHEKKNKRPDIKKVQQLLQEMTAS
Put plainly: IRAK4 enzyme inhibition degree (bead-based kinase assay, peptide substrate BMKC-2, 100 μM ATP). As to conditions: for inhibition at 1 µM: compound 1 μM. The format is biochemical. As to the method: 2.5 μl of a compound diluted to 4-fold of a final concentration was put into a 384-well white plate (low volume). 2.5 μl of 0.4 ng/μl IRAK4 enzyme was added thereto, and the resulting mixture was totally reacted for 10 minutes. 5 μl of a mixed liquid of a 6 μM peptide substrate (BMKC-2) and 100 μM ATP was added thereto, the resulting mixture was reacted at room temperature for 60 minutes, then 2.5 μl of 10 mM EDTA was added thereto, and the resulting mixture was reacted again for 10 minutes. 40 nM anti-phospho Thr antibody was aliquoted to 2.5 μl each, 5 μl of a mixed solution of a 160 μl/ml acceptor bead and a donor bead was added thereto, and then the resulting mixture was reacted at room temperature for 60 minutes. Fluorescence signals were measured using a bead experimental apparatus (Fusion alpha-FP Microplate Reader, Perkin Elmer Inc.).
From the detected signal, an activity inhibition rate [% inhibition degree=(the average value of a compound−the average value of a negative control)/(the average value of a positive control−the average value of a negative control)×100] was calculated, and is shown in [Table 1]. Further, a % inhibition degree of the compound at each concentration was obtained, and then a 50% inhibition concentration (IC50 value) was analyzed by a non-linear regression analysis.

Experiment [2] concerns TNF-α secretion, peripheral blood mononuclear cells (PBMCs). The experiment in a line: Suppression of TNF-α secretion in LPS-treated PBMCs (ELISA). The note with it: PBMC, 100 ng/ml LPS, 24 hours, read-out: TNF-α, % inhibition degree. The class given is cell-based. The protocol: (§1) Peripheral blood mononuclear cells (PBMCs) isolated from whole blood were distributed in a 96-well plate. TNF-α was aliquoted at a density of 1×10^5 cells/well, IFN-α was aliquoted at a density of 2×10^5 cells/well, and TNF-α and IFN-α were treated with a compound diluted to 4-fold of a final concentration and totally cultured for 30 minutes. TNF-α was treated with 100 ng/ml lipopolysaccharide (LPS), IFN-α was treated with 500 nM ODN2216 (CpGTLR9 stimulator), and TNF-α and IFN-α were further cultured for 24 hours and 72 hours, respectively. An enzyme-linked immunosorbent assay (ELISA) was performed on TNF-α and IFN-α using an ELISA kit manufactured by BD Biosciences and an ELISA kit manufactured by PBL Assay Science, Inc., respectively. A cell supernatant and a standard drug were put into the ELISA plates and reacted for 2 hours. The plates were washed and a measurement antibody and streptavidin-HRP were sequentially added thereto. After the plates were washed, a TMB substrate was added thereto and reacted in a dark place. The reaction was stopped by adding a stop solution thereto, and the absorbance at 450 nm and 570 nm was measured using an absorber (OPTIMax tunable microplate reader, molecular devices). The experimental results are shown in [Table 2].
(In an ELISA, binding on a coated surface is turned into a signal by an enzyme label.)

The test system of experiment [3] is NF-κB promoter, THP1-Lucia™ NF-κB cell line. The experiment in a line: NF-κB promoter inhibition, THP1-Lucia NF-κB cell line. As to conditions: 100 ng/ml LPS, 24 hours, read-out: NF-κB, % inhibition degree. The class given is cell-based. As to the method:
(§2) A THP1-Lucia™ NF-κB cell line (Invivogen) was used in an NF-κB inhibition experiment, and a THP1-Lucia™ ISG cell line was used in an ISG inhibition experiment. In the NF-κB inhibition experiment, cells were planted at a density of 1×10^4 cells/well in a 96-well plate, and in the ISG inhibition experiment, cells were planted at a density of 2×10^4 cells/well in a 96-well plate. The cells were treated with a compound diluted to 4-fold of a final concentration, and totally cultured for 30 minutes. NF-κB was treated with 100 ng/ml lipopolysaccharide (LPS), ISG was treated with a stimulator of 1 μg/ml Poly(dA:dT)/LyoVec, and NF-κB and ISG were cultured for 24 hours. 10 μl of a cell supernatant was taken and transferred to a 96-well plate. 50 μl of a Quanti-luc solution was aliquoted using an automatic aliquoter of a measurer (Envision Multilabel Plate Reader, Perkin Elmer, Inc.), and light emission signals were measured.

Experiment [4] concerns IFN-α secretion, peripheral blood mononuclear cells (PBMCs). The experiment in a line: Suppression of IFN-α secretion in ODN2216-treated PBMCs (ELISA). The format is cell-based. The note with it: PBMC, 500 nM ODN2216, 72 hours, read-out: IFN-α, % inhibition degree. The protocol:
as §1

Experiment [5] concerns ISG promoter, THP1-Lucia™ ISG cell line. The experiment in a line: ISG promoter inhibition, THP1-Lucia ISG cell line. The class given is cell-based. The note with it: 1 μg/ml Poly(dA:dT)/LyoVec, 24 hours, read-out: ISG, % inhibition degree. As to the method: as §2

On to `CCOC(=O)c1ccc2[nH]c3ncnc(N[C@H]4CC[C@H](N5CCOCC5)CC4)c3c2c1` [Compound 5ba, ethyl 4-((trans-4-morpholinocyclohexyl)amino)-9H-pyrimido[4,5-b]indole-6-carboxylate], for which, in experiment [1], the IC50 (as a rule, the midpoint of a concentration-inhibition curve) is 0.029 µM. The inhibition (in general, the drop in the measured response relative to a control, in per cent) at 1 µM in experiment [1] was 83%; in experiment [2] it was 41.3%; in experiment [3] it was 89%; in experiment [4], 73.9%; in experiment [5], 78%. For the same compound, the inhibition at 0.1 µM came to 31.7% in experiment [2], 48% in experiment [3], 27% in experiment [4] and 37% in experiment [5].
Regarding `CCOC(=O)c1ccc2[nH]c3ncnc(N[C@H]4CC[C@H](N(C)C)CC4)c3c2c1` [Compound 5bb, ethyl 4-((trans-4-(dimethylamino)cyclohexyl)amino)-9H-pyrimido[4,5-b]indole-6-carboxylate], in experiment [1], the IC50 turned out to be 0.021 µM. In addition, the inhibition at 1 µM came out at 83% in experiment [1]; 47% in experiment [2]; 92% in experiment [3]; 90% in experiment [4]; 73% in experiment [5]. For the same compound, the inhibition at 0.1 µM in experiment [2] was determined as 7.3%; in experiment [3] it was 58%; in experiment [4], 27.3%; in experiment [5], 43%.
Take `COC(=O)c1ccc2c(c1)[nH]c1ncnc(N[C@H]3CC[C@H](N4CCOCC4)CC3)c12` [Compound 5da, methyl 4-((trans-4-morpholinocyclohexyl)amino)-9H-pyrimido[4,5-b]indole-7-carboxylate]: half-maximal inhibition in experiment [1] (IC50) required 0.128 µM. Besides, the inhibition at 1 µM in experiment [1] was determined as 99%; in experiment [2], 40%; in experiment [3] it was 30%; in experiment [4], 40%; in experiment [5] it was 20%. In addition, the inhibition at 0.1 µM in experiment [2] stood at 10%; in experiment [3], 5%; in experiment [4] it was 10%; in experiment [5], 1%.
For `Cn1cc(-c2ccc3[nH]c4ncnc(N[C@H]5CC[C@H](N6CCOCC6)CC5)c4c3c2)cn1` [Compound 6aaa, 6-(1-methyl-1H-pyrazol-4-yl)-N-(trans-4-morpholinocyclohexyl)-9H-pyrimido[4,5-b]indole-4-amine], in experiment [1], the IC50 came to 0.028 µM. In addition, the inhibition at 1 µM in experiment [1] stood at 100%; in experiment [2], 42%; in experiment [3], 71%; in experiment [4] it was 21%; in experiment [5] it was 55%. The inhibition at 0.1 µM in experiment [2] was 10.5%; in experiment [3] it was 23%; in experiment [4] it was 20%; in experiment [5] it was 17%.
Regarding `c1cc(-c2ccc3[nH]c4ncnc(N[C@H]5CC[C@H](N6CCOCC6)CC5)c4c3c2)ccn1` [Compound 6aab, N-(trans-4-morpholinocyclohexyl)-6-(pyridin-4-yl)-9H-pyrimido[4,5-b]indole-4-amine], the IC50 in experiment [1] came out at 0.0184 µM. For the same compound, the inhibition at 1 µM in experiment [1] was 100%; in experiment [2], 114%; in experiment [3], 61%; in experiment [4] it was 94%; in experiment [5], 54%. In addition, the inhibition at 0.1 µM in experiment [2] worked out at 44%; in experiment [3], 8%; in experiment [4] it was 31%; in experiment [5], 11%.
With `c1ncc(-c2ccc3[nH]c4ncnc(N[C@H]5CC[C@H](N6CCOCC6)CC5)c4c3c2)cn1` [Compound 6aac, N-(trans-4-morpholinocyclohexyl)-6-(pyrimidin-5-yl)-9H-pyrimido[4,5-b]indole-4-amine], the IC50 in experiment [1] stood at 0.0126 µM. Besides, the inhibition at 1 µM in experiment [1] amounted to 100%; in experiment [2], 86%; in experiment [3], 64%; in experiment [4], 84%; in experiment [5] it was 45%. In addition, the inhibition at 0.1 µM in experiment [2] worked out at 24%; in experiment [3], 17%; in experiment [4], 21%; in experiment [5], 7%.
`Oc1cncc(-c2ccc3[nH]c4ncnc(N[C@H]5CC[C@H](N6CCOCC6)CC5)c4c3c2)c1` [Compound 6aae, 5-(4-((trans-4-morpholinocyclohexyl)amino)-9H-pyrimido[4,5-b]indol-6-yl)pyridine-3-ol]: in experiment [1], half-maximal inhibition (IC50) required 0.002 µM. Besides, the inhibition at 1 µM turned out to be 100% in experiment [1]; 53% in experiment [2]; 40% in experiment [3]; 92% in experiment [4]; 29% in experiment [5]. The inhibition at 0.1 µM in experiment [2] is 12%; in experiment [3], less than 1%; in experiment [4], 48%; in experiment [5] it was 4%.
For the compound `CN(C)CCOc1cncc(-c2ccc3[nH]c4ncnc(N[C@H]5CC[C@H](N6CCOCC6)CC5)c4c3c2)c1` [Compound 6aag, 6-(5-(2-(dimethylamino)ethoxy)pyridin-3-yl)-N-(trans-4-morpholinocyclohexyl)-9H-pyrimido[4,5-b]indole-4-amine], the IC50 in experiment [1] is 0.031 µM. The inhibition at 1 µM in experiment [1] worked out at 82%; in experiment [2] it was 51.4%; in experiment [3], 37%; in experiment [4] it was 89.5%; in experiment [5], 52%. The inhibition at 0.1 µM in experiment [2] came to 16.7%; in experiment [3] it was 12%; in experiment [4] it was 6.4%; in experiment [5], 20%.
For `COc1ccc(-c2ccc3[nH]c4ncnc(N[C@H]5CC[C@H](N6CCOCC6)CC5)c4c3c2)cn1` [Compound 6aah, 6-(6-methoxypyridin-3-yl)-N-(trans-4-morpholinocyclohexyl)-9H-pyrimido[4,5-b]indole-4-amine], in experiment [1], half-maximal inhibition (IC50) required 0.04 µM. Also, the inhibition at 1 µM in experiment [1] stood at 100%; in experiment [2] it was 67%; in experiment [3], 63%; in experiment [4], 79%; in experiment [5], 47%. For the same compound, the inhibition at 0.1 µM came to 16% in experiment [2], 19% in experiment [3], 15% in experiment [4] and 10% in experiment [5].
